# Test system: DMS-114 complex spheroids with HUVEC/MSC, growth % test/control
# Test: Anticancer human tumor DMS-114 cell line growth inhibition [AhR];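 further: spheroids exposed to agents for 7 days before readout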;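 on viability, T/C: 100% = DMSO vehicle control wells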
# Conditions: for IC50: curve of first compound; for viability, T/C: stronger effect = lower value
# Text: Multicellular complex tumor spheroid response to aryl hydrocarbon receptor antagonists in combination with a variety of drugs and investigational agents in selected tumor cell lines
# The current study was undertaken to assess response to aryl hydrocarbon receptor antagonists in combination with standard-of-care drugs and investigational agents in solid tumor complex spheroid models. Complex spheroids include a stromal component modeled by human endothelial cells (HUVEC) and fibroblasts modeled by human mesenchymal stem cells (MSCs). The concentration ranges selected for each drug and investigational agent were based upon clinically achievable concentrations if the clinical Cmax of the agent was known.
# Compounds. The drugs and investigational agents: BAY 2416964 (NSC825713), GNF351 (NSC835774), CH-223191 (NSC835775), CPI-455 (NSC825282), aza-TdCyd (NSC777586), decitabine (NSC127716), belinostat (NSC758774), entinostat (NSC756642), pevonedistat (NSC761192), tazemetostat (NSC777109), talazoparib (NSC765396), olaparib (NSC753686), selinexor (NSC780203), nedisertib (M3814, NSC802822), bortezomib (NSC756655), venetoclax (NSC766270), doxorubicin (NSC123127), elimusertib (BAY189344, NSC800525), ceralasertib (AZD6738, NSC777638), TAK-243 (NSC785004), alisertib (NSC759677), etoposide (NSC141540), topotecan (NSC609699), eribulin (NSC707389), gemcitabine (NSC613327), carboplatin (NSC241240), cisplatin (NSC119875), and SN-38 (NSC673596) were obtained from the National Cancer Institute (NCI) Developmental Therapeutics Program Chemical Repository (32). The FDA-approved anticancer drug set is available from the Developmental Therapeutics Program at https://dtp.cancer.gov/organization/dscb/obtaining/available plates.htm. […] The stock solutions were prepared in dimethyl sulfoxide (DMSO, Sigma-Aldrich, St. Louis, MO, cat. D2650), except for the platinum compounds which were prepared in saline (Quality Biological, Gaithersburg, MD, cat. 114-055-101), at 800-fold the tested concentration and stored at -70 degrees C prior to their use. All drugs and investigational agents were tested over a range starting from a high concentration at or near the clinical Cmax and decreasing in half-log increments. If the clinical Cmax for an agent had not been determined, the highest concentration tested was 10 microM (Table 1).
# Cell Culture. All cells were maintained in an incubator at 37 degrees C and 5% CO2 with 95% humidity. The PDC lines were cultured according to standard operating procedures established by the NCI PDMR (https://pdmr.cancer.gov). Briefly, all PDCs were thawed and cultured in Matrigel-coated flasks prepared with a working solution of 1X Ham's F-12 nutrient mix, without supplementation (Invitrogen, Waltham, MA, cat. 11765054), 100 U/mL penicillin-streptomycin (Invitrogen, cat. 15140122), and 2.5% Matrigel (Corning Inc., Corning, NY, cat. 354248) for the first three passages. All PDCs were cultured in complete DMEM/F-12 media containing advanced DMEM/F-12 (Invitrogen, cat. 12634028), 4.9% defined fetal bovine serum, heat inactivated (HyClone Laboratories Inc., Logan, UT, cat. SH30070.03HI), 389 ng/mL hydrocortisone (Sigma-Aldrich, cat. H4001), 9.7 ng/mL human EGF recombinant protein (Invitrogen, cat. PHG0313), 23.4 microg/mL adenine (Sigma-Aldrich, cat. A2786), 97.3 U/mL penicillin-streptomycin (Invitrogen, cat. 15140122), 1.9 mM L-glutamine (Invitrogen, cat. 25030081), and 9.7 microM Y-27632 dihydrochloride (Tocris Bioscience, Bristol, United Kingdom, cat. 1254). The PDCs were cultured in complete DMEM/F12 media without 10 microM Y-27632 dihydrochloride for at least two passages prior to the screen. The established cell lines NCI-H1341 and […] were cultured in DMEM/F-12, HEPES (Invitrogen, cat. 11330032), 5% defined fetal bovine serum (HyClone Laboratories Inc., cat. SH30070.03), ITS premix universal culture supplement [insulin (5 microg/mL), transferrin (5 microg/mL), and selenious acid (5 ng/mL)] […]
# [1] = second compound 0.1 µM, first compound 0.00316 µM
# [2] = second compound 0.1 µM, first compound 0.01 µM
# [3] = second compound 0.1 µM, first compound 0.0316 µM
# [4] = second compound 0.1 µM, first compound 0.1 µM
# [5] = second compound 0.316 µM, first compound 0.00316 µM
# [6] = second compound 0.316 µM, first compound 0.01 µM
# [7] = second compound 0.316 µM, first compound 0.0316 µM
# [8] = second compound 0.316 µM, first compound 0.1 µM
# [9] = second compound 1 µM, first compound 0.00316 µM
# [10] = second compound 1 µM, first compound 0.01 µM
# [11] = second compound 1 µM, first compound 0.0316 µM
# [12] = second compound 1 µM, first compound 0.1 µM
# [13] = second compound 3.16 µM, first compound 0.00316 µM
# [14] = second compound 3.16 µM, first compound 0.01 µM
# [15] = second compound 3.16 µM, first compound 0.0316 µM
# [16] = second compound 3.16 µM, first compound 0.1 µM
# [17] = second compound 10 µM, first compound 0.00316 µM
# [18] = second compound 10 µM, first compound 0.01 µM
# [19] = second compound 10 µM, first compound 0.0316 µM
# [20] = second compound 10 µM, first compound 0.1 µM
# [21] = second compound 0.1 µM, first compound 0.316 µM
# [22] = second compound 0.1 µM, first compound 1 µM
# [23] = second compound 0.1 µM, first compound 3.16 µM
# [24] = second compound 0.1 µM, first compound 10 µM
# [25] = second compound 0.316 µM, first compound 0.316 µM
# [26] = second compound 0.316 µM, first compound 1 µM
# [27] = second compound 0.316 µM, first compound 3.16 µM
# [28] = second compound 0.316 µM, first compound 10 µM
# [29] = second compound 1 µM, first compound 0.316 µM
# [30] = second compound 1 µM, first compound 1 µM
# [31] = second compound 1 µM, first compound 3.16 µM
# [32] = second compound 1 µM, first compound 10 µM
# [33] = second compound 3.16 µM, first compound 0.316 µM
# [34] = second compound 3.16 µM, first compound 1 µM
# [35] = second compound 3.16 µM, first compound 3.16 µM
# [36] = second compound 3.16 µM, first compound 10 µM
# [37] = second compound 10 µM, first compound 0.316 µM
# [38] = second compound 10 µM, first compound 1 µM
# [39] = second compound 10 µM, first compound 3.16 µM
# [40] = second compound 10 µM, first compound 10 µM
SMILES,IC50 (second compound 0.1 µM) [nM],IC50 (second compound 0.316 µM) [nM],IC50 (second compound 1 µM) [nM],IC50 (second compound 3.16 µM) [nM],IC50 (second compound 10 µM) [nM],"viability, T/C [3] [%]","viability, T/C [4] [%]","viability, T/C [7] [%]","viability, T/C [8] [%]","viability, T/C [11] [%]","viability, T/C [12] [%]","viability, T/C [15] [%]","viability, T/C [16] [%]","viability, T/C [19] [%]","viability, T/C [20] [%]","viability, T/C [21] [%]","viability, T/C [22] [%]","viability, T/C [25] [%]","viability, T/C [26] [%]","viability, T/C [29] [%]",further results
CC[C@@]1(O)C(=O)OCc2c1cc1n(c2=O)Cc2cc3c(CN(C)C)c(O)ccc3nc2-1 + CC(CO)NC(=O)c1cc(-c2ccc(Cl)cc2)nn(-c2cnn(C)c2)c1=O,34.6,32.4,37.2,32.7,32.8,51.9,27.2,46,26.9,54.6,21.9,51,26.4,48.1,25.4,,,,,,"viability, T/C (second compound 0.1 µM, first compound 0.000316 µM): 101%; viability, T/C (second compound 0.1 µM, first compound 0.001 µM): 103%; viability, T/C [1]: 95.7%; viability, T/C [2]: 95.2%; viability, T/C (second compound 0.316 µM, first compound 0.000316 µM): 105%; viability, T/C (second compound 0.316 µM, first compound 0.001 µM): 99%; viability, T/C [5]: 83.2%; viability, T/C [6]: 81.3%; viability, T/C (second compound 1 µM, first compound 0.000316 µM): 88.9%; viability, T/C (second compound 1 µM, first compound 0.001 µM): 95.2%; viability, T/C [9]: 90%; viability, T/C [10]: 85.5%; viability, T/C (second compound 3.16 µM, first compound 0.000316 µM): 104%; viability, T/C (second compound 3.16 µM, first compound 0.001 µM): 100%; viability, T/C [13]: 92.1%; viability, T/C [14]: 74.2%; viability, T/C (second compound 10 µM, first compound 0.000316 µM): 116%; viability, T/C (second compound 10 µM, first compound 0.001 µM): 105%; viability, T/C [17]: 95.1%; viability, T/C [18]: 92.7%"
COc1cc(C2c3cc4c(cc3C(OC3OC5COC(C)OC5C(O)C3O)C3COC(=O)C23)OCO4)cc(OC)c1O (stereo not given) + CC(CO)NC(=O)c1cc(-c2ccc(Cl)cc2)nn(-c2cnn(C)c2)c1=O,572,469,448,431,489,87.4,88.4,95.9,88.3,97.7,89.9,90.4,94.8,94.4,97.7,64.3,34.2,55,34.3,56.3,"viability, T/C [23]: 25.8%; viability, T/C [24]: 13.2%; viability, T/C [27]: 25.8%; viability, T/C [28]: 13.4%; viability, T/C [30]: 31.4%; viability, T/C [31]: 22.7%; viability, T/C [32]: 14%; viability, T/C [33]: 52.8%; viability, T/C [34]: 32.9%; viability, T/C [35]: 23.6%; viability, T/C [36]: 12%; viability, T/C [37]: 58%; viability, T/C [38]: 32.9%; viability, T/C [39]: 22.2%; viability, T/C [40]: 12.7%"
COc1cccc2c1C(=O)c1c(O)c3c(c(O)c1C2=O)CC(O)(C(=O)CO)CC3OC1CC(N)C(O)C(C)O1 (stereo not given) + CC(CO)NC(=O)c1cc(-c2ccc(Cl)cc2)nn(-c2cnn(C)c2)c1=O,< 31.6,34,< 31.6,< 31.6,< 31.6,40.4,34.1,51.2,31.4,48.8,33.5,43.9,35.4,43.4,27.3,8.85,1.01,8.15,0.97,10.3,"viability, T/C [23]: 0.27%; viability, T/C [24]: 0.6%; viability, T/C [27]: 0.59%; viability, T/C [28]: 0.6%; viability, T/C [30]: 0.95%; viability, T/C [31]: 0.33%; viability, T/C [32]: 0.54%; viability, T/C [33]: 9.19%; viability, T/C [34]: 0.92%; viability, T/C [35]: 1.14%; viability, T/C [36]: 0.73%; viability, T/C [37]: 9.28%; viability, T/C [38]: 0.38%; viability, T/C [39]: 0.32%; viability, T/C [40]: 0.4%"
Nc1ncn(C2CC(O)C(CO)O2)c(=O)n1 (stereo not given) + CC(CO)NC(=O)c1cc(-c2ccc(Cl)cc2)nn(-c2cnn(C)c2)c1=O,> 1000,> 1000,> 1000,> 1000,> 1000,97.8,96.5,93.9,80,90.3,93.8,80.1,94.5,93.4,98,85,61.6,79.8,59.8,83.3,"viability, T/C [1]: 102%; viability, T/C [2]: 95.6%; viability, T/C [5]: 122%; viability, T/C [6]: 101%; viability, T/C [9]: 91.3%; viability, T/C [10]: 105%; viability, T/C [30]: 72.3%; viability, T/C [13]: 109%; viability, T/C [14]: 104%; viability, T/C [33]: 85.1%; viability, T/C [34]: 70.7%; viability, T/C [17]: 101%; viability, T/C [18]: 99.7%; viability, T/C [37]: 91.8%; viability, T/C [38]: 76.5%"

# Reference: PubChem BioAssay AID1919008 (Molecular Pharmacology Branch, DTP, NCI, 2023)
